In BindingDB's records for doi:10.1021/cb400371r (University of Konstanz, 2013):

target: T1, Fucose-binding lectin PA-IIL (Pseudomonas aeruginosa (strain ATCC 15692 / DSM 22644 / CIP 104116 / JCM 14847 / LMG 12228 / 1C / PRS 101 / PAO1), UniProt Q9HYN5)
T1 sequence (Q9HYN5 whole entry): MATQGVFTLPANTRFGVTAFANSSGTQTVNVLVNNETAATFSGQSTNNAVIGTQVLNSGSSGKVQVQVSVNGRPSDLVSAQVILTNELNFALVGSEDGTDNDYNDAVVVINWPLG

SMILES	EC50 [µM]
CC1O[C@@H](OCCNC(=S)Nc2ccc(-c3c4ccc(=O)cc-4oc4cc(O)ccc34)c(C(=O)O)c2)[C@@H](O)C(O)[C@@H]1O (some centres not stated) [LecB Inhibitor Ligand 6]	0.697

target: T1, Fucose-binding lectin PA-IIL; remark: another data set of the same source

SMILES	IC50 [µM]
COC1O[C@H](CNCc2ccc(Cl)cc2)[C@@H](O)C(O)[C@@H]1O (some centres not stated) [LecB Inhibitor Amines 3d]	212
COC1O[C@H](Cn2cc(CO)nn2)[C@@H](O)C(O)[C@@H]1O (some centres not stated) [LecB Inhibitor Triazoles 2a]	578
COC1O[C@H](CNC(=O)c2ccc([N+](=O)O)cc2)[C@@H](O)C(O)[C@@H]1O (some centres not stated) [LecB Inhibitor Amides 4c]	75.8
COC1O[C@H](Cn2cc(-c3cccc(C)c3)nn2)[C@@H](O)C(O)[C@@H]1O (some centres not stated) [LecB Inhibitor Triazoles 2d]	279
CC1O[C@@H](OCCNC(=S)Nc2ccc(-c3c4ccc(=O)cc-4oc4cc(O)ccc34)c(C(=O)O)c2)[C@@H](O)C(O)[C@@H]1O (some centres not stated) [LecB Inhibitor Ligand 6]	2.74
COC1O[C@H](CNS(=O)(=O)c2ccc(Br)cc2)[C@@H](O)C(O)[C@@H]1O (some centres not stated) [LecB Inhibitor Sulfonamides 5c]	20.9
COC1O[C@H](Cn2cc(-c3ccc(F)cc3)nn2)[C@@H](O)C(O)[C@@H]1O (some centres not stated) [LecB Inhibitor Triazoles 2g]	240
COC1O[C@H](CNS(=O)(=O)c2ccc([N+](=O)O)cc2)[C@@H](O)C(O)[C@@H]1O (some centres not stated) [LecB Inhibitor Sulfonamides 5d]	36.1
COC1O[C@H](Cn2cc(-c3ccccc3)nn2)[C@@H](O)C(O)[C@@H]1O (some centres not stated) [LecB Inhibitor Triazoles 2c]	373
COC1O[C@H](Cn2cc(-c3ccc(C)cc3)nn2)[C@@H](O)C(O)[C@@H]1O (some centres not stated) [LecB Inhibitor Triazoles 2e]	294
COC1O[C@H](CNS(=O)(=O)c2ccc(C)cc2)[C@@H](O)C(O)[C@@H]1O (some centres not stated) [LecB Inhibitor Sulfonamides 5b]	49.7
COC1O[C@H](CNC(C)=O)[C@@H](O)C(O)[C@@H]1O (some centres not stated) [LecB Inhibitor Amides 4a]	281
COC1O[C@H](CN)[C@@H](O)C(O)[C@@H]1O (some centres not stated) [LecB Inhibitor Amines 3e]	353
COC1O[C@H](CNS(=O)(=O)/C=C/c2ccccc2)[C@@H](O)C(O)[C@@H]1O (some centres not stated) [LecB Inhibitor Sulfonamides 5g]	86.9
COC1O[C@H](CNC(=O)C(c2ccccc2)c2ccccc2)[C@@H](O)C(O)[C@@H]1O (some centres not stated) [LecB Inhibitor Amides 4f]	161
COC1O[C@H](CNC(=O)c2cc([N+](=O)O)cc([N+](=O)O)c2)[C@@H](O)C(O)[C@@H]1O (some centres not stated) [LecB Inhibitor Amides 4d]	121
COC1O[C@H](CNCc2ccc(C#N)cc2)[C@@H](O)C(O)[C@@H]1O (some centres not stated) [LecB Inhibitor Amines 3c]	115
COC1O[C@H](Cn2cc(CCc3ccccc3)nn2)[C@@H](O)C(O)[C@@H]1O (some centres not stated) [LecB Inhibitor Triazoles 2b]	264
COC1O[C@H](CNCc2ccccc2)[C@@H](O)C(O)[C@@H]1O (some centres not stated) [LecB Inhibitor Amines 3a]	227
COC1O[C@H](CNC(=O)Cc2ccccc2)[C@@H](O)C(O)[C@@H]1O (some centres not stated) [LecB Inhibitor Amides 4e]	73.8
COC1O[C@H](CNCc2ccc([N+](=O)O)cc2)[C@@H](O)C(O)[C@@H]1O (some centres not stated) [LecB Inhibitor Amines 3b]	117
